# From US9732067B2, “Compounds and methods for activating the apoptotic arm of the unfolded protein response” (University of Kansas, priority 2012, dated 2017)
# Legend:
# PAMPA permeability = assay type: in vitro ADME
# Description: The PAMPA (Parallel Artificial Membrane Permeability Assay) assay was used as an in vitro model of passive, transcellular permeability. An artificial membrane immobilized on a filter was placed between a donor and acceptor compartment. At the start of the test, drug was introduced in the donor compartment. Following the permeation period, the concentration of drug in the donor and acceptor compartments was measured using UV spectroscopy.
# [1] = system: CHOP transcripts (apoptotic) compared to spliced XBP1 (adaptive); experiment: qRT-PCR transcription profile in OSCC cell lines UMSCC23, A253 and HN12; assay type: cell-based; conditions: four hours treatment
# Source text: While ML291 robustly and selectively activated the apoptotic (CHOP) arm of UPR in the engineered luciferase reporter CHO-K1 cells, while not activating reporter under the control of the adaptive arm (XBP1) promoters, direct confirmation of the selective activation of genes and pathways on the apoptotic UPR arm in a biologically relevant cell or cell line was needed. To determine whether or not ML291 could selectively activate the apoptotic (CHOP) arm of the UPR, relevant oral squamous cell carcinoma cell lines, UMSCC23, A253 and HN12, were treated with ML291 for four hours. The activation/induction of associated genes along the UPR sub-pathways were measured by quantitative real-time reverse-transcription PCR (qRT-PCR) analysis of cDNA pools generated from whole cell lysates. […] Furthermore, the simultaneous induction of the CHOP down stream target GADD34, but not the DNA excision and repair gene ERCC1 indicated ML291 was activating CHOP via the UPR and not DNA damage.
structure (smiles),measurement,setting,value
"O=C(Nc1ccc(S(=O)(=O)N2CCC(Cl)CC2)cc1)c1ccc([N+](=O)[O-])o1 [ML291, N-(4-((4-chloropiperidin-1-yl)sulfonyl)phenyl)-5-nitrofuran-2-carboxamide]","PAMPA Permeability, Pe","PAMPA permeability; Donor pH 5.0, Acceptor pH 7.4",291 ×10⁻⁶ cm/s
same,"PAMPA Permeability, Pe","PAMPA permeability; Donor pH 6.2, Acceptor pH 7.4",329 ×10⁻⁶ cm/s
same,"PAMPA Permeability, Pe","PAMPA permeability; Donor pH 7.4, Acceptor pH 7.4",245 ×10⁻⁶ cm/s
same,PAMPA permeability,"PAMPA permeability; donor pH 5.0, 6.2 and 7.4",good permeability
same,selectivity of CHOP transcripts compared to spliced XBP1,[1],5 fold
